Reference: patent US11046716B2, “Beta-lactamase inhibitors” (priority 2015, dated 2021)
pIC50: −log10 of the molar value.

Tests used:
[1] = molecular target: T1, SHV-5 (Klebsiella pneumoniae, UniProt P0A3M1); test: β-lactamase enzyme inhibition assay, SHV-5 (cefotaxime substrate); format: biochemical
T1 construct: made in house; host or cells: E. coli BL21(DE3)
Summary of the method: (§1)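 Read-out is the rate of β-lactam ring hydrolysis monitored by absorbance: 300 nm for imipenem with KPC-2 and 260 nm for cefotaxime with SHV-5. Recombinant native enzymes were first incubated with compound at 37 °C for 15 min. The IC50 is the inhibitor concentration that halves the initial hydrolysis rate.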

[2] = molecular target: T2, KPC-2 (Klebsiella pneumoniae, UniProt Q9F663); test: β-lactamase enzyme inhibition assay, KPC-2 (imipenem substrate); format: biochemical; settings: Class A; imipenem substrate, 300 nm; read-out: KPC-2
T2 construct: made in house; host or cells: E. coli BL21(DE3)
Summary of the method: as §1

[3] = molecular target: T3, VIM-2 (Escherichia coli, UniProt Q5U7L7); test: β-lactamase enzyme inhibition assay, VIM-2 (nitrocefin substrate); format: biochemical; settings: Class B; nitrocefin substrate, 486 nm; read-out: VIM-2
T3 construct: made in house; host or cells: E. coli BL21(DE3)
Summary of the method: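 Purified VIM-2 (Q sepharose anion exchange, Hepes pH 7.5, >90% pure) was preincubated with inhibitor at 37 °C for 15 min, then nitrocefin added at 100 μM final. Absorbance at 486 nm was followed for 10 min; IC50 was taken from maximum hydrolysis rates relative to inhibitor-free controls.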

[4] = molecular target: T4, AmpC (Enterobacter cloacae, UniProt P05364); test: β-lactamase enzyme inhibition assay, p99 AmpC (nitrocefin substrate); format: biochemical
T4 construct: made in house; host or cells: E. coli BL21(DE3)
Summary of the method: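 Read-out is the rate of β-lactam ring hydrolysis monitored by absorbance. Recombinant native enzymes were first incubated with compound at 37 °C for 15 min. The IC50 is the inhibitor concentration that halves the initial hydrolysis rate.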

[5] = molecular target: OXA-48 (UniProt Q6XEC0); test: β-lactamase enzyme inhibition assay, Class D oxacillinase; format: biochemical; settings: read-out: OXA-48
[6] = test system: E. coli expressing the Class A Extended Spectrum Beta-Lactamase (ESBL) CTX-M-15; test: Broth microdilution MIC assay with ceftazidime, E. coli CTX-M-15; format: cell-based; settings: Fixed CAZ (ceftazidime) 4 μg/mL; E. coli ESBL4 CTX-M-15
Summary of the method: (§2)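 Test compound was titrated 2-fold from 16 to 0.125 μg/mL in cation-adjusted Mueller Hinton broth against a fixed 4 μg/ml β-lactam overlay. Plates were inoculated per CLSI broth microdilution, incubated 16-20 hours at 37° C, and the MIC of the test compound was read visually.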

[7] = test system: E. cloacae expressing the Class C P99; test: Broth microdilution MIC assay with ceftazidime, E. cloacae P99; format: cell-based; settings: Fixed CAZ (ceftazidime) 4 μg/mL; E. cl. 144200 p99 AmpC
Summary of the method: as §2

[8] = test system: K. pneumoniae expressing the Class A carbapenemase KPC-2; test: Broth microdilution MIC assay with meropenem, K. pneumoniae KPC-2; format: cell-based; settings: Fixed Mero (meropenem) 4 μg/mL; K. p. 156319 KPC-3
Summary of the method: as §2

[9] = test system: P. aeruginosa expressing the Class B carbapenemase VIM-2; test: Broth microdilution MIC assay with meropenem, P. aeruginosa VIM-2; format: cell-based; settings: Fixed Mero (meropenem) 4 μg/mL; P. aerug. 2775 VIM-2
Summary of the method: as §2

[10] = test system: K. pneumoniae expressing the class A carbapenemase KPC-2 and the class B carbapenemase VIM-4; test: Broth microdilution MIC assay with meropenem, K. pneumoniae KPC-2 and VIM-4; format: cell-based; settings: Fixed Mero (meropenem) 4 μg/mL; K. p. A-1797 KPC-2 VIM-4
Summary of the method: as §2

[11] = test system: K. pneumoniae producing the Class D carbapenemase OXA-48; test: Broth microdilution MIC assay with meropenem, K. pneumoniae OXA-48; format: cell-based; settings: Fixed Mero (meropenem) 4 μg/mL; K. p. 11978 OXA-48
Summary of the method: as §2

T2 sequence (Q9F663 25-293, looked up): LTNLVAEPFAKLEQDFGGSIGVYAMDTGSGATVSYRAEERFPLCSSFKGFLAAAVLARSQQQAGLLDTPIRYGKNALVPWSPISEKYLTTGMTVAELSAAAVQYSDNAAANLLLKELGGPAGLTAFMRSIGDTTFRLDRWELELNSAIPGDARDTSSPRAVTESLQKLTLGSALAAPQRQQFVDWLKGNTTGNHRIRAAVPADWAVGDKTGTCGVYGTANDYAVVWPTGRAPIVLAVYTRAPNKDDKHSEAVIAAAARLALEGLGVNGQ
T4 sequence (P05364 21-381): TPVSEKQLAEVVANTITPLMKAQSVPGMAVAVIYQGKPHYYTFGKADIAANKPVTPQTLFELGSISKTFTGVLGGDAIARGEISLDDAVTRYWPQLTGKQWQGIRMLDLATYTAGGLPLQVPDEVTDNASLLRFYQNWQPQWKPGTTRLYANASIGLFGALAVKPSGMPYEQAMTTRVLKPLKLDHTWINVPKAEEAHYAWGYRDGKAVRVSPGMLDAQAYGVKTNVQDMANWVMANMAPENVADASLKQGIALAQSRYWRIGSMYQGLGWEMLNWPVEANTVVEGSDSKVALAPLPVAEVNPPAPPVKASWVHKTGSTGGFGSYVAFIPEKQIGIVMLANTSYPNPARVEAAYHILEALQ
T1 sequence (P0A3M1 22-286): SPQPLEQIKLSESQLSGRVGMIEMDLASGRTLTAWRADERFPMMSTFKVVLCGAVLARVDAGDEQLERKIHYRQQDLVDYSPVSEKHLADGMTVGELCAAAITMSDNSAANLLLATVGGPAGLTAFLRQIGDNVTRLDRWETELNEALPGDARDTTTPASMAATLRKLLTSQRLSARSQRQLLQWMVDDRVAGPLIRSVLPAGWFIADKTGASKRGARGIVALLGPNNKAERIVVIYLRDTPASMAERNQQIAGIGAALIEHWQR

## Nc1nc(=O)c(Cc2cn(CC(=O)N[C@H]3Cc4cccc(C(=O)O)c4OB3O)nn2)c(N)[nH]1 [Example 64, (R)-3-(2-(4-((2,6-diamino-4-oxo-1,4-dihydropyrimidin-5-yl)methyl)-1H-1,2,3-triazol-1-yl)acetamido)-2-hydroxy-3,4-dihydro-2H-benzo[e][1,2]oxaborinine-8-carboxylic acid]
[1]
  pIC50: > 7.00
[2]
  pIC50: > 7.00
[3]
  pIC50: 6.00 to 7.00
[4]
  pIC50: > 7.00
[5]
  pIC50: > 7.00
[6]
  MIC (μg/mL) of Exemplary Compounds in presence of fixed β-lactams: E. coli ESBL4 CTX-M-15: C (C represents an MIC of <1 μg/mL)
[7]
  MIC (μg/mL) of Exemplary Compounds in presence of fixed β-lactams: E. cl. 144200 p99 AmpC: C (C represents an MIC of <1 μg/mL)
[8]
  MIC (μg/mL) of Exemplary Compounds in presence of fixed β-lactams: K. p. 156319 KPC-3: C (C represents an MIC of <1 μg/mL)
[9]
  MIC (μg/mL) of Exemplary Compounds in presence of fixed β-lactams: P. aerug. 2775 VIM-2: B (B represents an MIC between 1 and 16 μg/mL inclusive)
[10]
  MIC (μg/mL) of Exemplary Compounds in presence of fixed β-lactams: K. p. A-1797 KPC-2 VIM-4: B (B represents an MIC between 1 and 16 μg/mL inclusive)
[11]
  MIC (μg/mL) of Exemplary Compounds in presence of fixed β-lactams: K. p. 11978 OXA-48: B (B represents an MIC between 1 and 16 μg/mL inclusive)

## NCCCNC(=O)c1cn(CC(=O)N[C@H]2Cc3cccc(C(=O)O)c3OB2O)nn1 [Example 65, (R)-3-(2-(4-((3-aminopropyl)carbamoyl)-1H-1,2,3-triazol-1-yl)acetamido)-2-hydroxy-3,4-dihydro-2H-benzo[e][1,2]oxaborinine-8-carboxylic acid]
[1]
  pIC50: > 7.00
[2]
  pIC50: > 7.00
[3]
  pIC50: > 7.00
[4]
  pIC50: > 7.00
[5]
  pIC50: 6.00 to 7.00
[6]
  MIC (μg/mL) of Exemplary Compounds in presence of fixed β-lactams: E. coli ESBL4 CTX-M-15: C (C represents an MIC of <1 μg/mL)
[7]
  MIC (μg/mL) of Exemplary Compounds in presence of fixed β-lactams: E. cl. 144200 p99 AmpC: C (C represents an MIC of <1 μg/mL)
[8]
  MIC (μg/mL) of Exemplary Compounds in presence of fixed β-lactams: K. p. 156319 KPC-3: C (C represents an MIC of <1 μg/mL)
[9]
  MIC (μg/mL) of Exemplary Compounds in presence of fixed β-lactams: P. aerug. 2775 VIM-2: B (B represents an MIC between 1 and 16 μg/mL inclusive)
[10]
  MIC (μg/mL) of Exemplary Compounds in presence of fixed β-lactams: K. p. A-1797 KPC-2 VIM-4: B (B represents an MIC between 1 and 16 μg/mL inclusive)
[11]
  MIC (μg/mL) of Exemplary Compounds in presence of fixed β-lactams: K. p. 11978 OXA-48: B (B represents an MIC between 1 and 16 μg/mL inclusive)

## N[C@H]1CCN(C(=O)c2cn(CC(=O)N[C@H]3Cc4cccc(C(=O)O)c4OB3O)nn2)C1 [Example 66, (R)-3-(2-(4-((S)-3-aminopyrrolidine-1-carbonyl)-1H-1,2,3-triazol-1-yl)acetamido)-2-hydroxy-3,4-dihydro-2H-benzo[e][1,2]oxaborinine-8-carboxylic acid]
[1]
  pIC50: > 7.00
[2]
  pIC50: > 7.00
[3]
  pIC50: > 7.00
[4]
  pIC50: > 7.00
[5]
  pIC50: 6.00 to 7.00
[6]
  MIC (μg/mL) of Exemplary Compounds in presence of fixed β-lactams: E. coli ESBL4 CTX-M-15: C (C represents an MIC of <1 μg/mL)
[7]
  MIC (μg/mL) of Exemplary Compounds in presence of fixed β-lactams: E. cl. 144200 p99 AmpC: C (C represents an MIC of <1 μg/mL)
[8]
  MIC (μg/mL) of Exemplary Compounds in presence of fixed β-lactams: K. p. 156319 KPC-3: C (C represents an MIC of <1 μg/mL)
[9]
  MIC (μg/mL) of Exemplary Compounds in presence of fixed β-lactams: P. aerug. 2775 VIM-2: C (C represents an MIC of <1 μg/mL)
[10]
  MIC (μg/mL) of Exemplary Compounds in presence of fixed β-lactams: K. p. A-1797 KPC-2 VIM-4: B (B represents an MIC between 1 and 16 μg/mL inclusive)
[11]
  MIC (μg/mL) of Exemplary Compounds in presence of fixed β-lactams: K. p. 11978 OXA-48: B (B represents an MIC between 1 and 16 μg/mL inclusive)

## NCc1nnc(CC(=O)N[C@H]2Cc3cccc(C(=O)O)c3OB2O)s1 [Example 67, (R)-3-(2-(5-(aminomethyl)-1,3,4-thiadiazol-2-yl)acetamido)-2-hydroxy-3,4-dihydro-2H-benzo[e][1,2]oxaborinine-8-carboxylic acid]
[1]
  pIC50: > 7.00
[2]
  pIC50: > 7.00
[3]
  pIC50: 6.00 to 7.00
[4]
  pIC50: > 7.00
[5]
  pIC50: 6.00 to 7.00
[6]
  MIC (μg/mL) of Exemplary Compounds in presence of fixed β-lactams: E. coli ESBL4 CTX-M-15: C (C represents an MIC of <1 μg/mL)
[7]
  MIC (μg/mL) of Exemplary Compounds in presence of fixed β-lactams: E. cl. 144200 p99 AmpC: C (C represents an MIC of <1 μg/mL)
[8]
  MIC (μg/mL) of Exemplary Compounds in presence of fixed β-lactams: K. p. 156319 KPC-3: B (B represents an MIC between 1 and 16 μg/mL inclusive)
[9]
  MIC (μg/mL) of Exemplary Compounds in presence of fixed β-lactams: P. aerug. 2775 VIM-2: C (C represents an MIC of <1 μg/mL)
[10]
  MIC (μg/mL) of Exemplary Compounds in presence of fixed β-lactams: K. p. A-1797 KPC-2 VIM-4: B (B represents an MIC between 1 and 16 μg/mL inclusive)
[11]
  MIC (μg/mL) of Exemplary Compounds in presence of fixed β-lactams: K. p. 11978 OXA-48: B (B represents an MIC between 1 and 16 μg/mL inclusive)

## NCc1cnn(CC(=O)N[C@H]2Cc3cccc(C(=O)O)c3OB2O)c1 [Example 68, (R)-3-(2-(4-(aminomethyl)-1H-pyrazol-1-yl)acetamido)-2-hydroxy-3,4-dihydro-2H-benzo[e][1,2]oxaborinine-8-carboxylic acid]
[1]
  pIC50: 6.00 to 7.00
[2]
  pIC50: > 7.00
[3]
  pIC50: 6.00 to 7.00
[4]
  pIC50: > 7.00
[5]
  pIC50: 6.00 to 7.00
[6]
  MIC (μg/mL) of Exemplary Compounds in presence of fixed β-lactams: E. coli ESBL4 CTX-M-15: C (C represents an MIC of <1 μg/mL)
[7]
  MIC (μg/mL) of Exemplary Compounds in presence of fixed β-lactams: E. cl. 144200 p99 AmpC: C (C represents an MIC of <1 μg/mL)
[8]
  MIC (μg/mL) of Exemplary Compounds in presence of fixed β-lactams: K. p. 156319 KPC-3: C (C represents an MIC of <1 μg/mL)
[9]
  MIC (μg/mL) of Exemplary Compounds in presence of fixed β-lactams: P. aerug. 2775 VIM-2: C (C represents an MIC of <1 μg/mL)
[10]
  MIC (μg/mL) of Exemplary Compounds in presence of fixed β-lactams: K. p. A-1797 KPC-2 VIM-4: B (B represents an MIC between 1 and 16 μg/mL inclusive)
[11]
  MIC (μg/mL) of Exemplary Compounds in presence of fixed β-lactams: K. p. 11978 OXA-48: B (B represents an MIC between 1 and 16 μg/mL inclusive)

## NCCS(=O)(=O)NCc1cn(CC(=O)N[C@H]2Cc3cccc(C(=O)O)c3OB2O)nn1 [Example 69, (R)-3-(2-(4-(((2-aminoethyl)sulfonamido)methyl)-1H-1,2,3-triazol-1-yl)acetamido)-2-hydroxy-3,4-dihydro-2H-benzo[e][1,2]oxaborinine-8-carboxylic acid]
[1]
  pIC50: > 7.00
[2]
  pIC50: > 7.00
[3]
  pIC50: 6.00 to 7.00
[4]
  pIC50: > 7.00
[5]
  pIC50: 5.00 to 6.00
[6]
  MIC (μg/mL) of Exemplary Compounds in presence of fixed β-lactams: E. coli ESBL4 CTX-M-15: C (C represents an MIC of <1 μg/mL)
[7]
  MIC (μg/mL) of Exemplary Compounds in presence of fixed β-lactams: E. cl. 144200 p99 AmpC: C (C represents an MIC of <1 μg/mL)
[8]
  MIC (μg/mL) of Exemplary Compounds in presence of fixed β-lactams: K. p. 156319 KPC-3: B (B represents an MIC between 1 and 16 μg/mL inclusive)
[9]
  MIC (μg/mL) of Exemplary Compounds in presence of fixed β-lactams: P. aerug. 2775 VIM-2: C (C represents an MIC of <1 μg/mL)
[10]
  MIC (μg/mL) of Exemplary Compounds in presence of fixed β-lactams: K. p. A-1797 KPC-2 VIM-4: B (B represents an MIC between 1 and 16 μg/mL inclusive)
[11]
  MIC (μg/mL) of Exemplary Compounds in presence of fixed β-lactams: K. p. 11978 OXA-48: B (B represents an MIC between 1 and 16 μg/mL inclusive)
